Consider ten compounds from ChEMBL document CHEMBL1201862, “PubChem BioAssay data set” (2004).

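96-well plates; 48 h exposure; 5 concentrations. Endpoints by linear interpolation between flanking doses. Not reached: highest tested concentration assigned. GI50 marks 50% less growth.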 Activity calls are given as the source filed them. Rule as the data show it: active = GI50 up to about 1.1 µM and inactive = higher.

Among the test systems are UACC-257; COLO 205; HCT-15; HOP-62; IGROV-1; NCI/ADR-RES; KM12; NCI-H23; HT-29; NCI-H522; K562; NCI-H226; MDA-MB-435; HL-60; ACHN; UACC-62; DU-145; SF-268; SK-MEL-28; HCT-116.
Common to all, as to assay: DTP human tumour cell line panel, 48 h

Regarding `COc1cc(C2CC(C)(Nc3ccccc3)Oc3cc4c(cc32)OCO4)cc(OC)c1OC` (stereo not given), the GI50 – broadly, the concentration giving 50% growth inhibition – in the test on UACC-257 was 2.2 µM (inactive); with COLO 205, 0.839 µM (active); in the test on HCT-15, 0.161 µM; in the test with HOP-62, 0.192 µM (active); with IGROV-1 it was 0.386 µM (active); in the test with NCI/ADR-RES, 0.277 µM (active). The GI50 in the test with KM12 was 0.19 µM (active); with NCI-H23 it was 0.301 µM (active); with HT-29, 0.182 µM (active); in the test on NCI-H522, 0.296 µM (active); in the test on K562, 0.0933 µM (active); with NCI-H226, 0.855 µM (active). In addition, the GI50 is 0.0172 µM (active) with MDA-MB-435; 0.0906 µM (active) in the test with HL-60; 0.499 µM (active) in the test on ACHN; 0.203 µM (active) in the test on UACC-62; 0.352 µM (active) with DU-145; 4.58 µM (inactive) in the test with SF-268. For the same compound, the values for the GI50 in the test with SK-MEL-28 and in the test with HCT-116 were 0.254 µM (active) and 0.23 µM (active), respectively.

Take `COC(=O)Cc1ccc2c(c1)Sc1ccc(CC(=O)OC)cc1N2C`: the GI50 in the test with UACC-257 was 30.5 µM (inactive); in the test on COLO 205 it was 18.2 µM (inactive); in the test on HCT-15 it was 14.7 µM; with HOP-62 it was 27.4 µM (inactive); in the test with IGROV-1, 45.8 µM (inactive); with NCI/ADR-RES, 16.3 µM (inactive). Moreover, the GI50 in the test with KM12 is 8.07 µM (inactive); in the test with NCI-H23, 28.6 µM (inactive); in the test with HT-29 it was 10.8 µM (inactive); with NCI-H522 it was 9.75 µM (inactive); in the test with K562, 6.75 µM (inactive); in the test on NCI-H226 it was 49.5 µM (inactive). For the same compound, the GI50 is 6.4 µM (inactive) with MDA-MB-435; 20.7 µM (inactive) in the test on HL-60; 38 µM (inactive) in the test with ACHN; 23.9 µM (inactive) with UACC-62; > 71.6 µM (inactive) with DU-145; 38.3 µM (inactive) in the test on SF-268. For the same compound, the GI50 in the test on SK-MEL-28 is 38.3 µM (inactive); in the test with HCT-116, 24.1 µM (inactive).

`CCCCCCCCCc1c(Cl)nc(Cl)nc1Cl`: the GI50 with UACC-257 was 19.8 µM (inactive); in the test on COLO 205 it was 19.5 µM (inactive); in the test on HCT-15 it was 12.3 µM; with HOP-62, 22.5 µM (inactive); in the test with IGROV-1 it was 13.2 µM (inactive); in the test with NCI/ADR-RES, 18.8 µM (inactive). Also, the GI50 in the test on KM12 is 32.7 µM (inactive); with NCI-H23 it was 9.62 µM (inactive); in the test on HT-29 it was 17.5 µM (inactive); in the test with NCI-H522, 3.67 µM (inactive); with K562, 6.68 µM (inactive); in the test with NCI-H226, 5.62 µM (inactive). Also, the GI50 in the test on MDA-MB-435 is 13.5 µM (inactive); in the test on HL-60 it was 5.05 µM (inactive); in the test with ACHN it was 19.5 µM (inactive); with UACC-62, 20 µM (inactive); with DU-145 it was 17.3 µM (inactive); in the test with SF-268, 18.7 µM (inactive). The GI50 in the test with SK-MEL-28 is 19.4 µM (inactive); with HCT-116, 14.5 µM (inactive).

Take `COc1ccc(CC2NC(=O)/C=C/CC(C(C)C3OC3c3ccccc3)OC(=O)C(CC(C)C)OC(=O)C(C)CNC2=O)cc1Cl` (stereo not given): the GI50 in the test on UACC-257 is 4.07e-05 µM (active); in the test on COLO 205, < 1e-05 µM (active); in the test on HCT-15, 1.06e-05 µM; with HOP-62, 1.76e-05 µM (active); in the test on IGROV-1, 2.36e-05 µM (active); in the test on NCI/ADR-RES, 4.81e-05 µM (active). Moreover, the 50% growth inhibitory concentration (GI50) in the test with KM12 was < 1e-05 µM (active); with NCI-H23, 2.07e-05 µM (active); in the test on HT-29 it was < 1e-05 µM (active); in the test with NCI-H522 it was < 1e-05 µM (active); in the test on K562 it was < 1e-05 µM (active); in the test with NCI-H226 it was 2.4e-05 µM (active). The GI50 with MDA-MB-435 was < 1e-05 µM (active); in the test on HL-60, < 1e-05 µM (active); with ACHN it was 2.81e-05 µM (active); in the test on UACC-62, 1.1e-05 µM (active); with DU-145, 1.21e-05 µM (active); with SF-268, 4.55e-05 µM (active). For the same compound, the GI50 with SK-MEL-28 is 2.43e-05 µM (active); in the test on HCT-116, < 1e-05 µM (active).

As to `Cc1csc2n(C)c(=O)c3ccccc3[n+]12`, the GI50 with UACC-257 is > 100 µM (inactive); in the test with COLO 205 it was > 100 µM (inactive); in the test with HCT-15, more than 100 µM; in the test on HOP-62 it was > 100 µM (inactive); in the test with IGROV-1 it was > 100 µM (inactive); with NCI/ADR-RES it was > 100 µM (inactive). Moreover, the GI50 in the test with KM12, in the test on NCI-H23, in the test with HT-29, with NCI-H522, in the test with K562 and in the test on NCI-H226 was > 100 µM (inactive) each time. Also, the GI50 in the test on MDA-MB-435, in the test on HL-60, in the test on ACHN, with UACC-62, with DU-145 and in the test with SF-268 was > 100 µM (inactive) in each case. In addition, the GI50 in the test with SK-MEL-28 and in the test with HCT-116 was > 100 µM (inactive) in each case.

Turning to `O=C1C(Cl)=C(N2CCN(CCOCCO)CC2)C(=O)c2ccccc21`, the GI50 in the test with UACC-257 was 5.12 µM (inactive); with COLO 205, 15.2 µM (inactive); in the test with HCT-15, 11.9 µM; in the test with IGROV-1, 15.3 µM (inactive); with NCI/ADR-RES, 12.2 µM (inactive); with KM12, 16.3 µM (inactive). Besides, the GI50 with NCI-H23 is 13.6 µM (inactive); in the test on HT-29 it was 16 µM (inactive); in the test on NCI-H522, 1.77 µM (inactive); in the test with K562, 2.2 µM (inactive); with NCI-H226, 16.6 µM (inactive); in the test on MDA-MB-435 it was 3.41 µM (inactive). Further, the GI50 was 1.67 µM (inactive) in the test on HL-60; 7.36 µM (inactive) in the test with ACHN; 6.32 µM (inactive) in the test with UACC-62; 19.2 µM (inactive) with DU-145; 16.4 µM (inactive) in the test on SF-268; 17.3 µM (inactive) with SK-MEL-28. The GI50 in the test on HCT-116 was 3.97 µM (inactive).

Regarding `COC(=O)c1c(OC(C)=O)ccc2c1c1cc3ccccc3c(OC(C)=O)c1n2C`, the GI50 with COLO 205 is 21.8 µM (inactive); with HCT-15, 22.7 µM; in the test on HOP-62, 50 µM (inactive); in the test on IGROV-1, 2.73 µM (inactive); in the test on NCI/ADR-RES, 34.8 µM (inactive); in the test with KM12, 34.6 µM (inactive). The GI50 is 17.7 µM (inactive) with NCI-H23; 15.2 µM (inactive) in the test with HT-29; 4.97 µM (inactive) in the test on NCI-H522; 21.4 µM (inactive) with K562; 37.2 µM (inactive) in the test with NCI-H226; 25.6 µM (inactive) in the test on MDA-MB-435. Moreover, the GI50 with HL-60 is 19.3 µM (inactive); with ACHN, 8.09 µM (inactive); with UACC-62, 30.8 µM (inactive); with DU-145, 9.86 µM (inactive); in the test on SF-268 it was 27.7 µM (inactive); in the test with SK-MEL-28 it was 84.5 µM (inactive). Besides, in the test with HCT-116, the GI50 is 15.4 µM (inactive).

With `CN(C)c1ccc(-c2nc(-c3cc4c(ccc5ccccc54)oc3=O)cs2)cc1`, the GI50 in the test with UACC-257 is > 100 µM (inactive); in the test on COLO 205, > 100 µM (inactive); with HCT-15, more than 100 µM; in the test with HOP-62 it was > 100 µM (inactive); in the test with IGROV-1 it was > 100 µM (inactive); in the test on NCI/ADR-RES, > 100 µM (inactive). In addition, the GI50 with KM12, with HT-29, with NCI-H522, in the test on K562, in the test on NCI-H226 and with MDA-MB-435 was > 100 µM (inactive) in each case. Further, the GI50 with HL-60, in the test with ACHN, with UACC-62, with DU-145, with SF-268 and in the test on SK-MEL-28 was > 100 µM (inactive) throughout. Besides, in the test with HCT-116, the GI50 was > 100 µM (inactive).

Take `CCC/C=C/C=C/C(=O)OC1C(C)C2(O)C3C=C(C)C(=O)C3CC(COC(C)=O)=CC2C2C(C)(C)C12OC(=O)C(C)C` (stereo not given): the GI50 in the test with UACC-257 is 16.7 µM (inactive); in the test on COLO 205 it was 0.197 µM (active); with HOP-62, 0.0438 µM (active); with IGROV-1 it was 16.8 µM (inactive); in the test on NCI/ADR-RES, 21.5 µM (inactive); in the test on KM12, 16.9 µM (inactive). Also, the GI50 was 12.8 µM (inactive) with NCI-H23; 12.1 µM (inactive) in the test on HT-29; 13.4 µM (inactive) in the test on NCI-H522; 0.091 µM (active) in the test on K562; 15.8 µM (inactive) in the test with NCI-H226; 0.303 µM (active) in the test with MDA-MB-435. Further, the GI50 in the test on HL-60 is 0.532 µM (active); in the test on ACHN it was 9.46 µM (inactive); with UACC-62, 11.2 µM (inactive); in the test with DU-145, 29.6 µM (inactive); in the test with SF-268, 13.8 µM (inactive); in the test on SK-MEL-28 it was 13 µM (inactive). Further, the GI50 in the test on HCT-116 was 13.8 µM (inactive).

With `COc1ccc(-n2c(SC(CN3CCOCC3)CN3CCCC3=O)nc3ccccc3c2=O)cc1` (stereo not given), the GI50 is > 100 µM (inactive) with UACC-257; > 100 µM (inactive) in the test with COLO 205; more than 100 µM with HCT-15; > 100 µM (inactive) in the test with IGROV-1; > 100 µM (inactive) in the test on NCI/ADR-RES; > 100 µM (inactive) in the test with KM12. The GI50 was 96.4 µM (inactive) in the test with NCI-H23; > 100 µM (inactive) in the test on HT-29; > 100 µM (inactive) in the test on NCI-H522; > 100 µM (inactive) in the test with K562; 40.8 µM (inactive) in the test on NCI-H226; > 100 µM (inactive) in the test with MDA-MB-435. In addition, the GI50 was 85.9 µM (inactive) in the test with HL-60; 46 µM (inactive) in the test on ACHN; > 100 µM (inactive) in the test on UACC-62; > 100 µM (inactive) in the test with DU-145; > 100 µM (inactive) in the test with SF-268; 82.6 µM (inactive) in the test with SK-MEL-28. For the same compound, the GI50 in the test on HCT-116 was > 100 µM (inactive).
